Assay results: patent US4670434A, “(2-oxo-3-methylene-1,2,3,5-tetrahydroimidazo[2,1-b]q uinazolinyl)oxyalkylamides useful as cyclic AMP phosphodiesterase inhibitors” (Syntex (U.S.A.) Inc., priority 1985, dated 1987)

What was measured:
[1] = test system: Human platelet cyclic AMP phosphodiesterase; experiment: Cyclic AMP phosphodiesterase assay; type: biochemical; details: 1 μM cyclic AMP as substrate; human platelet enzyme; read-out: IC50 value, inhibition of cyclic AMP phosphodiesterase
Experimental: (§1) Cyclic AMP phosphodiesterase activity and inhibition of platelet aggregation were determined as follows.
Cyclic AMP phosphodiesterase assay
The inhibition of cyclic AMP phosphodiesterase activity by the subject compounds was assayed by the method of Filburn and Karn, Analyt. Biochem., 52: 505-516 (1973), using 1 μM cyclic AMP as the substrate. Human platelet cyclic AMP phosphodiesterase was obtained from human donors. Platelets were isolated and washed by centrifugation, the membranes ruptured by a sequential freeze-thaw procedure and hypotonic lysis and the soluble enzyme isolated by high speed centrifugation. The enzyme was stored in aliquots at -20° C.

human platelets = experiment: Platelet aggregation (turbidimetric); type: cell-based; details: platelet rich plasma
Experimental: as §1
Blood was collected into evacuated tubes containing sodium citrate (30 mM). Platelet rich plasma was collected after centrifugation. Aggregation was followed by a turbidimetric procedure described by G. V. R. Born, J. Physiol., Lond., 162: 67P-68P (1962).

Mongrel dogs = experiment: Inotropic activity in anesthetized mongrel dogs; type: in vivo; details: intravenous, anesthetized dog
Experimental: The inotropic activity of these compounds was determined as follows: Mongrel dogs were anesthetized i.v. with 35 mg/Kg sodium pentobarbital and supplemented as needed. Blood pressure was measured with a Statham pressure transducer via a cannula inserted from a femoral artery into the abdominal aorta. Heart rate was recorded by a cardiotachometer from a lead II electrocardiogram. Right ventricular contractile force was recorded from a Walton-Brodie strain gauge sutured to the right ventricle following a midsternal thoracotomy. A Harvard respirator was used to ventilate the dogs with room air through an endotracheal tube. The dog was bilaterally vagotomized. Following a midline laparotomy, a cannula was sutured into the duodenum for intraduodenal administration of test compound. A femoral vein was cannulated for administration of isoproterenol. All data were recorded on a Beckman R611 Dynograph.
To assess the responsiveness of each dog, isoproterenol was given i.v. at half-log interval doses from 0.007 to 2.1 or 6.67 μg/Kg. The test compound, N-cyclohexyl-N-methyl-4-(2-oxo-3-methylene-1,2,3,5-tetrahydroimidazo-[2,1- b]quinazolin-7-yl)oxybutanamide, was then administered intravenously at dose levels from 0.1 to 1.0 mg/Kg.

SMILES: C=c1c(=O)[nH]c2n1Cc1cc(OCCCC(=O)N(C)C3CCCCC3)ccc1N=2 [N-cyclohexyl-N-methyl-4-(2-oxo-3-methylene-1,2,3,5-tetrahydroimidazo[2,1-b]quinazolin-7-yl)oxybutanamide]
- IC50 [1]: 2.7 nM
- IC50 (human platelets): 150 nM
- Peak Effects as % of Max. Isoproterenol, Blood Pressure (Mongrel dogs; 0.1 mg/kg): 42 % of Max. Isoproterenol
- Peak Effects as % of Max. Isoproterenol, Heart Rate (Mongrel dogs; 0.1 mg/kg): 18 % of Max. Isoproterenol
- Peak Effects as % of Max. Isoproterenol, Rt. Ventricular Contractile Force (Mongrel dogs; 0.1 mg/kg): 24 % of Max. Isoproterenol
- Peak Effects as % of Max. Isoproterenol, Blood Pressure (Mongrel dogs; 0.316 mg/kg): 58 % of Max. Isoproterenol
- Peak Effects as % of Max. Isoproterenol, Heart Rate (Mongrel dogs; 0.316 mg/kg): 28 % of Max. Isoproterenol
- Peak Effects as % of Max. Isoproterenol, Rt. Ventricular Contractile Force (Mongrel dogs; 0.316 mg/kg): 52 % of Max. Isoproterenol
- Peak Effects as % of Max. Isoproterenol, Blood Pressure (Mongrel dogs; 1.0 mg/kg): 65 % of Max. Isoproterenol
- Peak Effects as % of Max. Isoproterenol, Heart Rate (Mongrel dogs; 1.0 mg/kg): 34 % of Max. Isoproterenol
- Peak Effects as % of Max. Isoproterenol, Rt. Ventricular Contractile Force (Mongrel dogs; 1.0 mg/kg): 62 % of Max. Isoproterenol
